Experimental findings from DBAASP are described below.

Values after ≈ are worked out from the molar mass of the structure shown.

Among the test systems are Escherichia coli UTI89; Escherichia coli BL21; Pseudomonas syringae; Escherichia coli BW25113; Escherichia coli; Citrobacter sp.; Enterobacter cloacae; Klebsiella pneumoniae; Staphylococcus aureus; Streptococcus pneumoniae.
Holding throughout (assay): ≥ marks a high value that may be exact or a test limit, other limits are often not marked, values filed in µg/mL are converted to µM
In experiment [1] the test system is Escherichia coli K12 MG1655.
The test system of experiment [2] is Salmonella enterica subsp. enterica serovar Typhimurium ATCC 14028.
In experiment [3] the test system is Staphylococcus epidermidis.
Experiment [4] concerns Streptococcus pyogenes GAS M1T1.
Experiment [5] has as its system Xanthomonas axonopodis pv. phaseoli ATCC 9563.
Experiment [6] relates to Pseudomonas aeruginosa ATCC 15442.
The subject of experiment [7] is Staphylococcus aureus ATCC 25923.
Experiment [8] concerns Staphylococcus aureus ATCC 29213.
For experiment [9], the system named is Staphylococcus aureus ATCC 6538.
The test system of experiment [10] is Staphylococcus epidermidis RP62A.
The test system of experiment [11] is Acinetobacter baumannii ATCC 19606.
Experiment [12] deals with Escherichia coli BW25113 ΔsbmA.
Experiment [13] deals with Klebsiella pneumoniae ATCC 700603.
Experiment [14] has as its system Pseudomonas aeruginosa ATCC 27853.
The test system of experiment [15] is Escherichia coli ATCC 25922.
Experiment [16] has as its system Staphylococcus aureus LAC.
In experiment [17] the test system is Acinetobacter baumannii ATCC 15308.
Experiment [18] has as its system Enterococcus faecalis ATCC 19433.

A word on the MIC: it is the smallest concentration in the dilution series that meets the test's criterion for growth inhibition. On to `CC[C@H](C)[C@H](NC(=O)[C@H](CCCCN)NC(=O)[C@H](CCC(N)=O)NC(=O)[C@H](Cc1c[nH]c2ccccc12)NC(=O)[C@@H](NC(=O)[C@H](CCCCN)NC(=O)[C@@H](N)CCCCN)[C@@H](C)CC)C(=O)N[C@@H](CCCCN)C(=O)N[C@@H](CC(N)=O)C(=O)N[C@@H](Cc1ccccc1)C(=O)N[C@@H](Cc1ccccc1)C(=O)N[C@@H](CCCN=C(N)N)C(=O)N[C@@H](CCCCN)C(=O)N[C@@H](CC(C)C)C(=O)O` [KKIWQKIKNFFRKL], for which the MIC in [1] was at least 50 µM; in the experiment on Escherichia coli UTI89, 25 µM (≈ 46.9 µg/mL); in experiment [2], over 50 µM; in experiment [3] it was 12.5 µM (≈ 23.5 µg/mL).
For the compound `CC[C@H](C)[C@H](NC(=O)[C@H](CCC(=O)O)NC(=O)[C@H](CC(N)=O)NC(=O)[C@H](CCCCN)NC(=O)[C@H](CC(C)C)NC(=O)[C@H](Cc1ccc(O)cc1)NC(=O)[C@H](CCC(N)=O)NC(=O)[C@H](CCCN=C(N)N)NC(=O)[C@@H](NC(=O)[C@@H](NC(=O)[C@H](CCCCN)NC(=O)[C@H](CCCCN)NC(=O)[C@H](Cc1c[nH]c2ccccc12)NC(=O)[C@H](C)N)[C@@H](C)O)[C@@H](C)CC)C(=O)N[C@@H](CCCCN)C(=O)N[C@@H](CCCCN)C(=O)N[C@@H](CCCCN)C(=O)N[C@@H](Cc1c[nH]c2ccccc12)C(=O)N[C@@H](CCCN=C(N)N)C(=O)N[C@@H](CCCCN)C(=O)N[C@@H](C)C(=O)N[C@H](C(=O)N[C@H](C(=O)N[C@@H](C)C(=O)N[C@@H](Cc1c[nH]c2ccccc12)C(=O)O)[C@@H](C)CC)C(C)C` [AWKKTIRQYLKNEIKKKWRKAVIAW], the MIC is 2 µM (≈ 6.37 µg/mL) against Escherichia coli BL21, 8 µM (≈ 25.5 µg/mL) against Pseudomonas syringae, 8 µM (≈ 25.5 µg/mL) in experiment [4] and 1 µM (≈ 3.19 µg/mL) in experiment [5].
In the case of `CC[C@H](C)[C@H](NC(=O)[C@@H](N)CCC(=O)O)C(=O)N[C@@H](CCC(=O)O)C(=O)N[C@@H](CCCCN)C(=O)N[C@@H](Cc1ccccc1)C(=O)N[C@@H](CC(=O)O)C(=O)N[C@@H](CCCCN)C(=O)N[C@@H](CO)C(=O)N[C@@H](CCCCN)C(=O)N[C@@H](CC(C)C)C(=O)N[C@@H](CCCCN)C(=O)O` [EIEKFDKSKLK], the MIC was at least 9160 µM in experiment [6]; 9160 µM (≈ 12500 µg/mL) in experiment [7]; 4540 µM (≈ 6200 µg/mL) in [8]; 9160 µM (≈ 12500 µg/mL) in [9]; at least 9160 µM in experiment [10].
With `CC[C@H](C)[C@H](NC(=O)[C@@H]1CCCN1C(=O)[C@H](CCCN=C(N)N)NC(=O)[C@H](CCCN=C(N)N)NC(=O)[C@H](Cc1c[nH]c2ccccc12)NC(=O)[C@@H](N)CCCN=C(N)N)C(=O)N[C@@H](CCCN=C(N)N)C(=O)N[C@@H](CCCN=C(N)N)C(=O)N[C@@H](CCCN=C(N)N)C(=O)N1CCC[C@H]1C(=O)N[C@H](C(=O)N[C@@H](CCCN=C(N)N)C(=O)N1CCC[C@H]1C(=O)N1CCC[C@H]1C(=O)N[C@@H](Cc1ccccc1)C(=O)N[C@@H](Cc1c[nH]c2ccccc12)C(=O)N[C@@H](CCCN=C(N)N)C(=O)O)[C@@H](C)CC` [RWRRPIRRRPIRPPFWR], the minimal inhibitory concentration (MIC) was determined as 8 µM (≈ 19.2 µg/mL) in experiment [11]; 4 µM (≈ 9.61 µg/mL) in experiment [12]; 4 µM (≈ 9.61 µg/mL) in the experiment on Escherichia coli BW25113; 1.41 µM (≈ 3.4 µg/mL) against Escherichia coli; 4 µM (≈ 9.61 µg/mL) in experiment [13]; 32 µM (≈ 76.9 µg/mL) in [14]. The MIC in [7] was determined as 64 µM (≈ 154 µg/mL).
As to `CC[C@H](C)[C@H](NC(=O)[C@H](CCCCN)NC(=O)[C@H](CCC(N)=O)NC(=O)[C@H](Cc1c[nH]c2ccccc12)NC(=O)[C@@H](NC(=O)[C@H](CCCCN)NC(=O)[C@@H](N)CCCCN)[C@@H](C)CC)C(=O)N[C@@H](CCCN=C(N)N)C(=O)N[C@@H](CC(N)=O)C(=O)N[C@@H](Cc1ccccc1)C(=O)N[C@@H](Cc1ccccc1)C(=O)N[C@@H](CCC(N)=O)C(=O)N[C@@H](CCCCN)C(=O)N[C@@H](CC(C)C)C(=O)O` [KKIWQKIRNFFQKL], the MIC in [1] is 12.5 µM (≈ 23.5 µg/mL); against Escherichia coli UTI89, 12.5 µM (≈ 23.5 µg/mL); in [2], over 50 µM; in [3], at least 50 µM.
As for `NC(N)=NCCC[C@H](NC(=O)[C@H](CCCN=C(N)N)NC(=O)[C@H](CCCN=C(N)N)NC(=O)[C@H](CCCN=C(N)N)NC(=O)[C@H](Cc1ccc(O)cc1)NC(=O)[C@H](Cc1ccc(O)cc1)NC(=O)[C@H](Cc1ccc(O)cc1)NC(=O)[C@@H](N)Cc1ccc(O)cc1)C(=O)O` [YYYYRRRR], the MIC in experiment [15] is over 98.8 µM; in experiment [16] it was at least 98.8 µM.
As to `CC(C)C[C@H](NC(=O)[C@H](CCCCN)NC(=O)[C@H](CO)NC(=O)[C@H](CCCCN)NC(=O)[C@H](CC(=O)O)NC(=O)[C@H](Cc1ccccc1)NC(=O)[C@H](CO)NC(=O)[C@H](C)NC(=O)[C@@H](NC(=O)[C@@H](N)CCC(=O)O)C(C)C)C(=O)N[C@@H](CCCCN)C(=O)O` [EVASFDKSKLK], the MIC in [6] was at least 9990 µM; in experiment [7], 9990 µM (≈ 12500 µg/mL); in experiment [8], 9990 µM (≈ 12500 µg/mL); in experiment [9] it was 9990 µM (≈ 12500 µg/mL); in experiment [10] it was at least 4950 µM.
As to `CC[C@H](C)[C@H](NC(=O)[C@H](CCSC)NC(=O)[C@H](C)NC(=O)[C@@H]1CCCN1C(=O)[C@@H](NC(=O)[C@H](CCCN=C(N)N)NC(=O)[C@H](CCCCN)NC(=O)[C@@H](NC(=O)[C@H](CC(C)C)NC(=O)CNC(=O)CNC(=O)[C@H](CC(C)C)NC(=O)[C@@H](N)Cc1ccccc1)[C@@H](C)CC)C(C)C)C(=O)N[C@H]1CSSC[C@@H](C(=O)O)NC(=O)[C@H](CCCCN)NC(=O)[C@H](CCCCN)NC(=O)[C@H](CCCN=C(N)N)NC(=O)[C@H](C(C)C)NC(=O)[C@H](C)NC1=O` [FLGGLIKRVPAMICAVRKKC], the MIC in experiment [17] is at least 113 µM; against Citrobacter sp., at least 113 µM; with Enterobacter cloacae it was at least 113 µM; in [15], over 113 µM; in the experiment with Klebsiella pneumoniae it was over 113 µM; in [6], at least 113 µM. Further, the MIC in experiment [7] is over 113 µM; with Staphylococcus aureus, over 113 µM; in the experiment on Streptococcus pneumoniae it was at least 113 µM.
`CC(C)C[C@H](NC(=O)[C@@H](N)CCCN=C(N)N)C(=O)N1CCC[C@H]1C(=O)N[C@@H](Cc1c[nH]c2ccccc12)C(=O)N[C@@H](CCCN=C(N)N)C(=O)N[C@@H](Cc1c[nH]c2ccccc12)C(=O)N1CCC[C@H]1C(=O)N[C@@H](CCCN=C(N)N)C(=O)N[C@@H](CCCN=C(N)N)C(=O)N1CCC[C@H]1C(=O)N[C@@H](Cc1c[nH]c2ccccc12)C(=O)N[C@@H](CCCN=C(N)N)C(=O)N[C@@H](CCCN=C(N)N)C(N)=O` [RLPWRWPRRPWRR]: the MIC was at least 130 µM in [17]; at least 130 µM in the experiment on Citrobacter sp.; at least 130 µM in the experiment on Enterobacter cloacae; 130 µM (≈ 250 µg/mL) in experiment [15]; over 130 µM against Klebsiella pneumoniae; at least 65.2 µM in experiment [6]. In addition, the values for the MIC (in experiment [7]; in the experiment with Staphylococcus aureus; in the experiment with Streptococcus pneumoniae) were 65.2 µM (≈ 125 µg/mL), 130 µM (≈ 250 µg/mL) and at least 130 µM, respectively.
On to `CC[C@H](C)[C@H](N)C(=O)N[C@H](C(=O)N[C@H](C(=O)N[C@H](C(=O)N[C@@H](CCCN=C(N)N)C(=O)N[C@@H](CCCN=C(N)N)C(=O)N[C@@H](CCCN=C(N)N)C(=O)N[C@@H](CCCN=C(N)N)C(=O)O)[C@@H](C)CC)[C@@H](C)CC)[C@@H](C)CC` [IIIIRRRR], for which the MIC in experiment [15] is over 117 µM; in experiment [16] it was at least 117 µM.
In the case of `CC[C@@H](C)[C@@H](NC(=O)[C@@H](CCCN=C(N)N)NC(=O)[C@@H](CCCN=C(N)N)NC(=O)[C@@H](Cc1c[nH]c2ccccc12)NC(=O)[C@@H](CCC(N)=O)NC(=O)[C@H](N)C(C)C)C(=O)N[C@H](CCCN=C(N)N)C(=O)N[C@@H](C(=O)N[C@H](Cc1c[nH]c2ccccc12)C(=O)N[C@@H](C(=O)N[C@@H](C(=O)N[C@H](CCCN=C(N)N)C(=O)O)[C@H](C)CC)C(C)C)C(C)C` [VQWRRIRVWVIR], the MIC in experiment [18] is at least 154 µM.
